# Results published in patent EP3496534B1, “LIQUID CONCENTRATE FOR PRESERVATION” (Ashland Industries Europe GmbH, priority 2016, dated 2018).
# “Also recorded” adds a separate entry of the source.
# Columns and labels:
# Format in all cases: physicochemical
# [1] = Solubility of diols in fully demineralized water
# [2] = Solubility of mixture A + diols; conditions: 10g of substance added to 90g of mixture A
# Protocol: 10g of each of the following substances was added to 90g of mixture A to obtain solutions (Table 3).
# [3] = Solubility of various carboxylic acid salts + diols (appearance after stirring 3 h)
# Protocol: Various carboxylic acid salts were mixed with diols in order to test whether homogenous concentrates could be obtained: […]
# In example 4c, 10 g of 1-(2-ethyl hexyl) glycerol ether or of 1,2-octanediol, was added to an aqueous potassium sorbate solution in order to obtain solutions (Table 4c). Table 4c […]
# In example 4e, 10g of 1-(2-ethyl hexyl) glycerol ether or of 1,2-octanediol was added to aqueous mixtures of potassium sorbate with sodium benzoate (weight ratio 1/1) in order to obtain solutions (Table 4e) Table 4e
# [4] = Surface tension of mixture A with water or diols; conditions: for surface tension (change against addition of 10 parts of water): 10 parts added to 90 parts of mixture A, application concentration of 1% in water; for Surface tension, 1% in water, mN/m: 90.0 parts mixture A + 10.0 parts of the substance
# Protocol: The surface tension of mixtures of 90 parts of mixture A from example 1 with 10 parts of water or diols respectively was determined (Table 5): Table 5
# [5] = 10.0 diol in potassium sorbate 5.0 / sodium benzoate 5.0 / water 80.0
# [6] = 10.0 diol in potassium sorbate 10.0 / sodium benzoate 10.0 / water 70.0
# [7] = 10.0 diol in potassium sorbate 10.0 / water 80.0
# [8] = 10.0 diol in potassium sorbate 15.0 / sodium benzoate 15.0 / water 60.0
# [9] = 10.0 diol in potassium sorbate 20.0 / water 70.0
# [10] = 10.0 diol in potassium sorbate 22.5 / sodium benzoate 22.5 / water 45.0
# [11] = 10.0 diol in potassium sorbate 30.0 / water 60.0
# [12] = 10.0 diol in potassium sorbate 45.0 / water 45.0
# [13] = 10.0 diol in sodium benzoate 10.0 / water 80.0
# [14] = 10.0 diol in sodium benzoate 20.0 / water 70.0
# [15] = 10.0 diol in sodium benzoate 30.0 / water 60.0
# [16] = 10.0 diol in sodium benzoate 45.0 / water 45.0
# [17] = 10.0 parts diol in potassium formate 45.0 / fully demineralized water 45.0
# [18] = 10.0 parts diol in sodium propionate 30.0 / fully demineralized water 60.0
compound,measurement,setting,value
"CCCCCCCCCCC(O)CO (stereo not drawn) [1,2-dodecanediol]",Solubility,[1],< 0.1%
same,Solubility of mixture A + diols,[2],dissolve; also recorded: clear solution
"CCCCC(O)CO (stereo not drawn) [1,2-hexanediol]",Solubility,[1],Unlimited
same,Solubility of mixture A + diols,[2],clear solution
"CCCCCCC(O)CO (stereo not drawn) [1,2-octanediol]",Solubility,[1],0.7%
same,Solubility of mixture A + diols,[2],clear solution
same,Appearance of solution after stirring during 3 h,[3]; [5],2 phases
same,Appearance of solution after stirring during 3 h,[3]; [6],can dissolve; also recorded: clear
same,Appearance of the solution after stirring during 3h,[3]; [7],2 phases
same,Appearance of solution after stirring during 3 h,[3]; [8],can dissolve; also recorded: clear
same,Appearance of the solution after stirring during 3h,[3]; [9],can dissolve; also recorded: clear
same,Appearance of solution after stirring during 3 h,[3]; [10],can dissolve; also recorded: clear
same,Appearance of the solution after stirring during 3h,[3]; [11],can dissolve; also recorded: clear
same,Appearance of the solution after stirring during 3h,[3]; [12],can dissolve; also recorded: clear
same,Appearance of solution after stirring during 3 h,[3]; [13],2 phases
same,Appearance of solution after stirring during 3 h,[3]; [14],can dissolve; also recorded: clear
same,Appearance of solution after stirring during 3 h,[3]; [15],can dissolve; also recorded: clear
same,Appearance of solution after stirring during 3 h,[3]; [16],can dissolve; also recorded: clear
same,Appearance after stirring for 3 h,[3]; [17],"can dissolve neither; also recorded: not dissolved, 2 phases"
same,Appearance after stirring for 3 h,[3]; [18],"can dissolve neither; also recorded: not dissolved, 2 phases"
same,surface tension (change against addition of 10 parts of water),[4],significantly decreased
same,"Surface tension, 1% in water, mN/m",[4],44.7 mN/m
CCCCC(CC)COCC(O)CO (stereo not drawn) [1-(2-ethylhexyl) glycerol ether],Solubility,[1],0.1%
same,Solubility of mixture A + diols,[2],clear solution
same,Appearance of solution after stirring during 3 h,[3]; [5],2 phases
same,Appearance of solution after stirring during 3 h,[3]; 10.0 diol in potassium sorbate 7.5 / sodium benzoate 7.5 / water 75.0,2 phases
same,Appearance of solution after stirring during 3 h,[3]; [6],can dissolve
same,Appearance of solution after stirring during 3 h,"[3]; 10.0 diol in potassium sorbate 10.0 / sodium benzoate 10.0 / water 70.0, listed as 1-(2-ethylhexyl)-glycerol ether",clear
same,Appearance of the solution after stirring during 3h,[3]; [7],2 phases
same,Appearance of solution after stirring during 3 h,[3]; [8],can dissolve
same,Appearance of solution after stirring during 3 h,"[3]; 10.0 diol in potassium sorbate 15.0 / sodium benzoate 15.0 / water 60.0, listed as 1-(2-ethylhexyl)-glycerol ether",clear
same,Appearance of the solution after stirring during 3h,[3]; 10.0 diol in potassium sorbate 15.0 / water 75.0,2 phases
same,Appearance of the solution after stirring during 3h,[3]; [9],clear
same,Appearance of the solution after stirring during 3h,"[3]; 10.0 diol in potassium sorbate 20.0 / water 70.0, listed as 1-(2-ethylhexyloxy)glycerol ether",can dissolve
same,Appearance of solution after stirring during 3 h,[3]; [10],can dissolve
same,Appearance of solution after stirring during 3 h,"[3]; 10.0 diol in potassium sorbate 22.5 / sodium benzoate 22.5 / water 45.0, listed as 1-(2-ethylhexyl)-glycerol ether",clear
same,Appearance of the solution after stirring during 3h,[3]; [11],clear
same,Appearance of the solution after stirring during 3h,"[3]; 10.0 diol in potassium sorbate 30.0 / water 60.0, listed as 1-(2-ethylhexyloxy)glycerol ether",can dissolve
same,Appearance of the solution after stirring during 3h,[3]; [12],clear
same,Appearance of the solution after stirring during 3h,"[3]; 10.0 diol in potassium sorbate 45.0 / water 45.0, listed as 1-(2-ethylhexyloxy)glycerol ether",can dissolve
same,Appearance of solution after stirring during 3 h,[3]; [13],2 phases
same,Appearance of solution after stirring during 3 h,[3]; 10.0 diol in sodium benzoate 15.0 / water 75.0,2 phases
same,Appearance of solution after stirring during 3 h,[3]; [14],can dissolve; also recorded: clear
same,Appearance of solution after stirring during 3 h,[3]; [15],can dissolve; also recorded: clear
same,Appearance of solution after stirring during 3 h,[3]; [16],can dissolve; also recorded: clear
same,Appearance after stirring for 3 h,[3]; [17],"can dissolve neither; also recorded: not dissolved, 2 phases"
same,Appearance after stirring for 3 h,[3]; [18],"not dissolved, 2 phases"
same,Appearance after stirring for 3 h,"[3]; 10.0 parts diol in sodium propionate 30.0 / fully demineralized water 60.0, listed as 1-(2-ethylhexyl)glycerol ether",can dissolve neither
same,surface tension (change against addition of 10 parts of water),[4],significantly decreased
same,"Surface tension, 1% in water, mN/m",[4],35.6 mN/m
CCCCCCCCCCCCOCC(O)CO (stereo not drawn) [1-dodecyl glycerol ether],Solubility,[1],< 0.1%
same,Solubility of mixture A + diols,[2],clear solution
"OCC(O)CO [Glycerol (85%), Glycerol, reference compound]",surface tension (change against addition of 10 parts of water),[4],not observed
same,"Surface tension, 1% in water, mN/m",[4],72.2 mN/m
"CC(O)CO (stereo not drawn) [Propylene glycol, reference compound]",surface tension (change against addition of 10 parts of water),[4],not observed
same,"Surface tension, 1% in water, mN/m",[4],72.3 mN/m
O [Water],"Surface tension, 1% in water, mN/m",[4],71.9 mN/m
